Patent US11952365B2, “Anti-viral compounds” (Aligos Therapeutics, Inc., priority 2020, dated 2024)
Where two headings read alike, the source gives them in different places.

Legend:
[1] = tested on: human beta-coronavirus OC43; experiment: microbe, parasite or virus in culture; type: cell-based; settings: OC43 in HeLa cells, 6 days at 33° C., class symbols, read-out: EC50
HRV3C = HRV3C (Human rhinovirus 14, UniProt P03303); experiment: HRV3C protease assay (duplex, SAMDI-MS); type: biochemical, HRV; settings: HRV3C, 30 mins preincubation, read-out: HRV IC50
Method in brief: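 HRV3C was preincubated 30 min with compound alongside 3CLpro at ambient temperature, then two biotinylated peptide substrates were added for 30 min. Quenching used 0.5% formic acid (final). Cleaved product was captured on neutravidin SAMDI arrays and quantified by MALDI-TOF as product/internal-standard AUC ratio; IC50 from four-parameter fit.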

3CLpro [2] = target: T1, 3CLpro (Severe acute respiratory syndrome coronavirus 2, UniProt P0DTD1); experiment: SARS-CoV-2 3CLpro protease assay (duplex, SAMDI-MS); type: biochemical; parameters: For the duplex assay, 3CLpro and HRV3C was added; settings: 3CLpro, 30 mins preincubation, class symbols; read-out: SARS-Cov-2 IC50
human cathepsin L = target: T2, human cathepsin L (Homo sapiens, UniProt P07711); experiment: cathepsin L assay; type: biochemical; settings: 10 pM human cathepsin L, Z-FR-AMC 2 μM, class symbols
T2 construct: purchased R&D Systems
Method in brief: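 Reactions began by adding 2 μM (final) Z-FR-AMC substrate to 10 pM human cathepsin L that had been preincubated 30 min with inhibitor. Kinetic AMC fluorescence at 355/460 nm over 30 min at 2-min intervals; four-parameter fitting gave IC50 values.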

HeLa cells = experiment: Cytotoxicity plates without OC43 virus (cell-titer-glo); type: cell-based, human; settings: class symbols
Method in brief: (§1)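 Run as a virus-free counterpart of the OC43 cytopathic-effect assay. Attached HeLa cells received compound dilutions in EMEM with 2% FBS and were kept 6 days at 33 °C. Cell viability was then measured by CellTiter-Glo luminescence.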

Huh7 cells = settings: read-out: Huh-7 (CC50), MTS, numeric bounds
Vero E6-eGFP cells = settings: read-out: VeroE6 + CP (CC50); Vero E6-eGFP cells with CP-100356, absence of virus, MTS; numeric bounds
[3] = tested on: SARS-CoV-2-GHB-03021/2020; experiment: SARS-CoV-2 Infection Model in Huh7 Cells; type: cell-based; settings: SARS-CoV-2, day 4 p.i., MTS, class symbols
[4] = tested on: SARS-CoV-2-GHB-03021/2020; experiment: microbe, parasite or virus in culture; type: cell-based; settings: read-out: VeroE6 + CP (EC50)
in vitro [5] = settings: human
in vitro [6] = settings: African green monkey, VeroE6 + CP (CC50), Vero E6-eGFP cells with CP-100356, absence of virus, MTS
[7] = Cytotoxicity plates without OC43 virus (cell-titer-glo); type: cell-based, human; settings: human; HeLa cells without OC43 virus, class symbols
Method in brief: as §1

3CLpro [8] = target: T1, 3CLpro; settings: cited from earlier work
SARS-CoV-2 = settings: cited from earlier work
[9] = Betacoronavirus 1, OC43, HeLa, 144 h
[10] = Severe acute respiratory syndrome coronavirus 2, Vero C1008, 96 h
[11] = Severe acute respiratory syndrome coronavirus 2, Huh-7, 96 h

T2 sequence (P07711 114-333): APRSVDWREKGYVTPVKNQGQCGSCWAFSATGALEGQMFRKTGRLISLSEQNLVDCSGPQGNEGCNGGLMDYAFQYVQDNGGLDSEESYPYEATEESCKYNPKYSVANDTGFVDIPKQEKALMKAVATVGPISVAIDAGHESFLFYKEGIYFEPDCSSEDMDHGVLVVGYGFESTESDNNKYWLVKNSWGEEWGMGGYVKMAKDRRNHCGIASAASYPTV
HRV3C, sequence (P03303 1538-1719): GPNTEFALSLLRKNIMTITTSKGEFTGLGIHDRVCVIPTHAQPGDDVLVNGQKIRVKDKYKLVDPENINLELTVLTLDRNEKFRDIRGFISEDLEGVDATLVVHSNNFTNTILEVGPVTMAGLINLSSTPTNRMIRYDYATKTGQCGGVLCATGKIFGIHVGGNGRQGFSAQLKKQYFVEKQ

Compound | EC50 [1] | IC50 (HRV3C; bound) | IC50 (3CLpro [2]) | IC50 (human cathepsin L) | CC50 (HeLa cells) | EC50 [1, 9] | IC50 (HRV3C; class symbols) | EC50 [4, 10] | CC50 (in vitro [5]) | CC50 at 6 days [7] | EC50 [3, 11] | further results
COc1cccc2[nH]c(C(=O)N3Cc4ccccc4[C@H]3C(=O)N[C@@H](C[C@@H]3CCCNC3=O)C(=O)CO)cc12 [Compound 73_1] | 100 to 1000 nM | > 10 µM | 20 to 200 nM | ≥ 10 µM | > 10 µM |  |  |  |  |  |  | 
COc1cccc2[nH]c(C(=O)N3Cc4ccccc4[C@@H]3C(=O)N[C@@H](C[C@@H]3CCCNC3=O)C(=O)CO)cc12 [Compound 73_2] | 10000 to 100000 nM | > 10 µM | 2000 to 20000 nM | ≥ 10 µM | > 10 µM |  |  |  |  |  |  | 
O=C1NCC[C@H]1C[C@H](NC(=O)[C@@H]1[C@H]2CCC[C@H]2CN1C(=O)c1cc2c([nH]1)C1CCC2C1)C(=O)CO (stereo partly drawn) [Compound 157, (1S,3aR,6aS)-2-{3-azatricyclo[5.2.1.0^{2,6}]deca-2(6),4-diene-4-carbonyl}-N-[(2S)-4-hydroxy-3-oxo-1-[(3S)-2-oxopyrrolidin-3-yl]butan-2-yl]-hexahydro-1H-cyclopenta[c]pyrrole-1-carboxamide] | 100 to 1000 nM |  | 20 to 200 nM | ≥ 10 µM | > 10 µM |  |  |  |  |  |  | CC50 (Huh7 cells): > 50 µM; CC50 (Vero E6-eGFP cells): > 50 µM; EC50 ([3]; read-out: Huh-7 (EC50)): 1000 to 10000 nM
Cn1c(C(=O)N2CCC3(CC3)C[C@H]2C(=O)N[C@@H](C[C@@H]2CCNC2=O)C(=O)C(=O)NC2CC2)cc2ccccc21 [Compound 172] |  |  | < 20 nM | 1 to 10 µM |  | 1000 to 10000 nM | 2 to 20 µM | < 1000 nM | > 10 µM | > 10 µM | < 1000 nM | CC50 (in vitro [6]; numeric bounds): > 50 µM
CC(C)OCCNC(=O)C(=O)[C@H](C[C@@H]1CCNC1=O)NC(=O)[C@@H]1[C@H]2CCC[C@H]2CN1C(=O)c1cc2c(Cl)cc(Cl)cc2[nH]1 [Compound 173] |  | > 10 µM | 20 to 200 nM | ≥ 10 µM |  | 100 to 1000 nM |  | < 1000 nM | 1 to 10 µM | > 10 µM | 1000 to 10000 nM | CC50 (in vitro [6]; numeric bounds): > 50 µM
O=C(NCCOCC1CCCC1)C(=O)[C@H](C[C@@H]1CCNC1=O)NC(=O)[C@@H]1[C@H]2CCC[C@H]2CN1C(=O)c1cc2c(Cl)cc(Cl)cc2[nH]1 [Compound 174] |  |  | 20 to 200 nM | 1 to 10 µM |  | 100 to 1000 nM | 2 to 20 µM | < 1000 nM | 1 to 10 µM | > 10 µM | < 1000 nM | CC50 (in vitro [6]; class symbols): 1 to 10 µM
CN1CCN(C(=O)N[C@@H](Cc2ccccc2)C(=O)N[C@H](/C=C/S(=O)(=O)c2ccccc2)CCc2ccccc2)CC1 [Compound K117777] |  |  |  |  |  |  |  |  |  |  |  | inhibitory effect on the 3CLpro (3CLpro [8]): lacks an inhibitory effect; inhibition of SARS-CoV-2 (SARS-CoV-2; in VeroE6, A549-ACE2 and/or HeLa-ACE2): potent inhibition; antiviral effect (SARS-CoV-2; when TMPRSS2 was expressed in A549-ACE2): abolished
N-benzyl-3-[[(2S)-1-(1H-indole-2-carbonyl)pyrrolidin-2-yl]formamido]-2-oxo-4-[(3S)-2-oxopyrrolidin-3-yl]butanamide [Compound 3] | 10000 to 100000 nM |  | 20000 to 100000 nM |  | > 10 µM |  | 2 to 20 µM |  |  |  |  | EC50 [4]: > 100000 nM; CC50 (Vero E6-eGFP cells): > 100 µM
